According to patent US7897588B2, “Agents and methods for enhancing bone formation” (The Regents of the University of California, priority 2003, dated 2011):

Assays:
[1] = system: osteocalcin mRNA; assay: Northern blot for osteocalcin mRNA in M2 cells; type: cell-based, mouse
Description: RNA isolation and Northern blot analysis—Following treatment of cells under appropriate experimental conditions, total RNA was isolated using the RNA isolation kit from Stratagene (La Jolla, Calif., U.S.A.). Total RNA ([…]) was run on a 1% agarose/formaldehyde gel and transferred to Duralon-UV membranes (Strategene, Calif., U.S.A.) and cross-linked with UV light. The membranes were hybridized overnight at 60 degree C. with ^32P-labeled mouse osteocalcin cDNA probe, mouse lipoprotein lipase (LPL), mouse adipocyte protein 2 (aP2) PCR-generated probes, human 28S or 18S rRNA probes obtained from Geneka Biotechnology (Montreal, Quebec, Canada) and Maxim Biotech (San Francisco, Calif., U.S.A.), respectively. […] Following hybridization, the blots were washed twice at room temperature with 2×SSC+0.1% SDS, and then twice at 60 degree C. with 0.5×SSC+0.1% SDS, and exposed to X-ray film. The extent of gene induction was determined by densitometry.
After 4 and 8 days, total RNA from duplicate samples was isolated and analyzed for osteocalcin (Osc) and 28S rRNA expression by Northern blotting as described. FIG. 3E is a radiogram of Northern blotting for osteocalcin mRNA in M2 cells exposed to a control or combination of oxysterols for 4 or 8 days. FIG. 3F is a bar graph depicting the relative demsometric units of osteocalcin mRNA in M2 cells exposed to a control or combination of oxysterols for 4 or 8 days. Data from densitometric analysis of the Northern blot is shown in (F) as the average of duplicate samples, normalized to 28S rRNA.
Next, a combination of 22R and 20S oxysterols (RS, 2.5 μM each) were added in the presence or absence of SC as indicated. After 3 days, ALP activity was measured as described earlier. […] (B) M2 cells were treated as described in (A) and after 10 days matrix mineralization in cultures was quantified by a ^45Ca incorporation assay as described earlier. Results from a representative of three experiments are shown, reported as the mean±SD of quadruplicate determinations, normalized to protein concentration. (C) M2 cells were pretreated with 20 μM SC for 4 hours, followed by the addition of RS in the presence or absence of SC as described above. After 8 days, total RNA was isolated and analyzed for osteocalcin (Osc) and 18S rRNA expression by Northern blotting as previously described. Data from densitometric analysis of the Northern blot is shown in (D) as the average of duplicate samples, normalized to 18S rRNA. (E) M2 cells at confluence were pretreated for 2 hours with control vehicle (C), or PLA2 inhibitors ACA (25 μM) and AACOCF3 (AAC, 20 μM), in osteogenic medium. […] After 3 days, ALP activity was measured as previously described. […]

[2] = system: M2-10B4 mouse marrow stromal cell line; assay: Alkaline phosphatase (ALP) activity assay in M2 cells; type: cell-based; conditions: for dose and time dependence of induction of alkaline phosphatase activity: concentrations between 0.5-10 μM; for alkaline phosphatase activity: ligands used at 10 μM, control C: 18±2, ±SD; for induction of alkaline phosphatase activity: osteogenic medium, 10 μM oxysterols, 3 days
Description: Cells: M2-10B4 mouse marrow stromal cell line obtained from American Type Culture Collection (ATCC, Rockville, Md., U.S.A.) was derived from bone marrow stromal cells of a (C57BL/6J×C3H/HeJ) F1 mouse, and support human and murine myelopoiesis in long-term cultures (as per ATCC) and have the ability to differentiate into osteoblastic and adipocytic cells. Unless specified, these cells were cultured in RPMI 1640 containing 10% heat-inactivated FBS, and supplemented with 1 mM sodium pyruvate, 100 U/ml penicillin, and 100 […] (all from Irvine Scientific).
Alkaline phosphatase activity assay: Colorimetric alkaline phosphatase (ALP) activity assay on whole cell extracts was performed as previously described.
Test 1: M2 cells at confluence were treated with control vehicle (C), or 10 μM oxysterols, in an osteogenic medium consisting of RPMI 1640 to which 10% fetal bovine serum (FBS), 50 μg/ml ascorbate and 3 mM beta-glycerophosphate (βGP) were added. After 3 days of incubation, alkaline phosphatase (ALP) activity was determined in cell homogenates by a colorimetric assay. […] FIG. 3A is a bar graph depicting the effect of various oxysterols on alkaline phosphatase activity in M2 cells.
M2 cells at confluence were treated in osteogenic medium with control vehicle (C) or a combination of 22R and 20S oxysterols, at the indicated concentrations. ALP activity was measured after 3 days as described above. […] FIG. 3B is a bar graph depicting the effect of a combination of oxysterols at various doses on alkaline phosphatase activity in M2 cells.
Test 2: M2 cells were grown in RPMI medium containing 10% fetal bovine serum (FBS). At confluence, the cells were treated in RPMI containing 5% FBS plus ascorbate at 50 μg/ml and β-glycerophosphate at 3 mM to induce osteoblastic differentiation. Adipogenic differentiation was induced by treating the cells in growth medium plus 10 ˜M troglitazone. A vehicle (C) or oxysterol treatment was applied to cells in a variety of doses (in μM): 20S-Hydroxycholesterol, 25-Hydroxycholesterol, 22R-Hydroxycholesterol; 22S-Hydroxycholesterol; 7-ketocholesterol. Cells were always treated at 90% confluence. After 4 days, alkaline phosphatase activity was determined in whole cell lysates and normalized to protein. Alternatively, MSC cultures were prepared and treated with oxysterols as described above. Cells were treated at 90% confluence with the combination of 22R-Hydroxycholesterol and 20S-Hydroxycholesterol, each at 5 uM, for 4 to 96 hours. The oxysterols where removed and fresh media without oxysterols was added for a total duration of 96 hours. Alkaline phosphatase activity was measured in whole cell extracts and normalized to protein.
M2 cells were treated at 90% confluence with vehicle (C), or oxysterols 20S-Hydroxycholesterol or 22S-Hydroxycholesterol at (0.5 μM) or (1 μM), in the absence or presence of cytochrome P450 inhibitor (SKF525A 10 μM (+)). MSC cultures were also treated at 90% confluence with vehicle (C), or 20S-Hydroxycholesterol (2 μM), in the absence or presence of cytochrome P450 […] (Benzylimidazole 50 μM) or SKF525A (10 μM). After 4 days, alkaline phosphatase activity was measured in whole cell extracts and normalized to protein.
Next, a combination of 22R and 20S oxysterols (RS, 2.5 μM each) were added in the presence or absence of SC as indicated. After 3 days, ALP activity was measured as described earlier. […] (B) M2 cells were treated as described in (A) and after 10 days matrix mineralization in cultures was quantified by a ^45Ca incorporation assay as described earlier.

[3] = individual oxysterols 0.5-10 μM up to 14 days, combinations 5 μM each, 4 and 8 days

SMILES | induction of osteocalcin gene expression [1, 3] | dose and time dependence of induction of alkaline phosphatase activity [2] | alkaline phosphatase activity [2] [activity units/mg protein] | induction of alkaline phosphatase activity [2] | induction of osteocalcin gene expression ([1]; TO treatment, after 10 days) | effect on alkaline phosphatase activity ([2]; TO at 1-10 μM)
CC(C)CCC[C@](C)(O)[C@H]1CC[C@H]2[C@@H]3CC=C4C[C@@H](O)CC[C@]4(C)[C@H]3CC[C@@]21C [20S, 20(S)-hydroxycholesterol] | unable to induce | dose- and time-dependent | 140±12 | induced | – | –
CC(C)CC[C@@H](O)[C@@H](C)[C@H]1CC[C@H]2[C@@H]3CC=C4C[C@@H](O)CC[C@]4(C)[C@H]3CC[C@]12C [22R, 22(R)-hydroxycholesterol] | unable to induce | dose- and time-dependent | 45±5 | induced | – | –
CC(C)CC[C@H](O)[C@@H](C)[C@H]1CC[C@H]2[C@@H]3CC=C4C[C@@H](O)CC[C@]4(C)[C@H]3CC[C@]12C [22S, 22(S)-hydroxycholesterol] | unable to induce | dose- and time-dependent | – | induced | – | –
O=S(=O)(c1ccccc1)N(CC(F)(F)F)c1ccc(C(O)(C(F)(F)F)C(F)(F)F)cc1 [TO, TO-901317] | – | – | 3±0.5 | – | did not induce | dose-dependent inhibition
